Data set [1] is described as follows: Stability against light (impurity content by HPLC after storage). Type of data set: physicochemical. On the procedure:
The respective crystals obtained in Example 1 and Comparative Example 2 (the crystal form A and the crystal form B) were stored for 1, 3 and 6 months under conditions of 25° C./1000 Lx (apparatus for light stability test; Nagano Science Co. Ltd) and 25° C./dark (control), and impurity contents were measured by HPLC method to investigate stability against exposure to light for the respective crystals. The conditions for HPLC method are shown below.
(Calculation Method of Impurity Content)
Individual impurity content (%)=(Peak area of individual impurity)/(total of all peak areas)×100
Peaks with impurity contents of 0.05% or greater were recorded as impurity peaks, and their total was recorded as the impurity content of the crystals. Impurity content (%)=Total of individual impurity contents (%)

A short description of data set [2]: Variable-temperature powder X-ray diffraction and DSC (change of crystal form on heating). Type of data set: physicochemical. How it is done:
The measuring conditions were the same as for the powder X-ray diffraction pattern measurement described above, except for the measuring temperature.
DSC analysis was conducted under the following conditions, using approximately 3 mg each of the crystals obtained in Example 1 and Comparative Example 2 (the crystal form A and the crystal form B). The DSC patterns of the respective crystals are shown in FIG. 6 and FIG. 7 (magnification of 40-230° C.), and the endothermic peaks and exothermic peaks are shown in Table 2. • Measuring apparatus: DSC822^e by Mettler Toledo • Sample pan material: aluminum • Nitrogen gas flow (40 mL/min) • Start temperature: 25° C. • End temperature: 260° C.
Temperature elevating rate: 5° C./min

For `Cn1cc(-c2cnc(N)nc2-c2ccco2)ccc1=O` [Crystal form A, 5-[2-amino-4-(2-furyl)pyrimidin-5-yl]-1-methylpyridin-2(1H)-one], the Impurity content in data set [1] (25° C./1000Lx, storage period 1 month, listed as A) is 0.10%; in data set [1] (25° C./1000Lx, storage period 3 months, listed as A), 0.07%; in data set [1] (25° C./1000Lx, storage period 6 months, listed as A), 0.08%; in data set [1] (25° C./dark (control), storage period 1 month, listed as A), 0.14%; in data set [1] (25° C./dark (control), storage period 3 months, listed as A), 0.12%; in data set [1] (25° C./dark (control), storage period 6 months, listed as A), 0.12%. Also, the Impurity content in data set [1] (Initial, before storage, HPLC, listed as A) came out at 0.06%. Besides, in data set [1] (25° C./1000 Lx, up to 6 months), the “Stability against exposure to light (comparison of crystal forms)” value is on record as “more stable against exposure to light than the crystal form B”. The “Change in crystal form by heating” value in data set [2] (sample temperature 30° C. to 260° C.) was “undergoes no change in crystal form by heating”.
As for `Cn1cc(-c2cnc(N)nc2-c2ccco2)ccc1=O` [Crystal form B, 5-[2-amino-4-(2-furyl)pyrimidin-5-yl]-1-methylpyridin-2(1H)-one], the Impurity content in data set [1] (25° C./1000Lx, storage period 1 month, listed as B) was determined as 0.48%; in data set [1] (25° C./1000Lx, storage period 3 months, listed as B), 0.52%; in data set [1] (25° C./1000Lx, storage period 6 months, listed as B), 0.81%; in data set [1] (25° C./dark (control), storage period 1 month, listed as B), 0.28%; in data set [1] (25° C./dark (control), storage period 3 months, listed as B) it was 0.25%; in data set [1] (25° C./dark (control), storage period 6 months, listed as B), 0.23%. In data set [1] (Initial, before storage, HPLC, listed as B), this compound yielded an Impurity content of 0.34%. Besides, the “Temperature of transformation to another crystal form (B′)” value in data set [2] (heating 30° C. to 260° C.) was “about 90 °C”. For the same compound, the “Temperature of transformation to the crystal form A” value in data set [2] (heating 30° C. to 260° C.) was “about 170 °C”.

For the origin of these results see US20060235225A1, “Crystals of 5-[2-amino-4-(2-furyl) pyrimidin-5-yl]-1-methylpyridin-2(1H)-one and processes for preparing the same” (Eisai Co., Ltd., priority 2005, published 2006).
